# According to patent US20090131481A1, “Transcription Factor Modulating Compounds and Methods of Use Thereof” (Paratek Pharmaceuticals, Inc., published 2009):
# Like-named read-outs stand apart in the source and are kept apart here.
# Tests used:
# [1] = biological target: T1, ExsA (Pseudomonas aeruginosa, UniProt P26993); test: Chemiluminescence-based ExsA-DNA binding assay; set-up: species or system P. aeruginosa
# T1 construct: made in house
# T1 sequence (P26993 1-278): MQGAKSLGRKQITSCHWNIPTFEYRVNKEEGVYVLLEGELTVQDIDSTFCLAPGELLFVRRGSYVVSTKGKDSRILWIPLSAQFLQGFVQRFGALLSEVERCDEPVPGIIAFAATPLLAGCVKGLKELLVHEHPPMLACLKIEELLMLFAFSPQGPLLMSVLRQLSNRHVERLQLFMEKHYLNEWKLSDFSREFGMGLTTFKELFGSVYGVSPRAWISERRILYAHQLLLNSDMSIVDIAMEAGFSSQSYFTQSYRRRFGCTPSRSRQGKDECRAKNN
# [2] = biological target: T2, SlyA (Escherichia coli, UniProt P0A8W2); test: biochemical; type: binding, E. coli
# T2 sequence (P0A8W2 1-144): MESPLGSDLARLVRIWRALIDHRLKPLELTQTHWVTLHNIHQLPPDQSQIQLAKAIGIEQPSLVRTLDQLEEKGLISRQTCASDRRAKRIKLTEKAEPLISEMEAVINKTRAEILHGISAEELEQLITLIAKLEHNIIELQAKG
# [3] = biological target: T3, MarA (Escherichia coli, UniProt P0ACH5); test: Chemiluminescence-based MarA-DNA binding assay; set-up: species or system E. coli; settings: Table 10
# T3 sequence (P0ACH5 1-127): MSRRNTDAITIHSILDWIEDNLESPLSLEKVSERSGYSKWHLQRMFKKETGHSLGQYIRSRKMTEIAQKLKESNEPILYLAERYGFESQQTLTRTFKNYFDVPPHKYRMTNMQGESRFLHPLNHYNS
# [4] = biological target: T4, Rob (Escherichia coli, UniProt P0ACI0); test: Chemiluminescence-based Rob-DNA binding assay; set-up: species or system E. coli; settings: Table 10
# T4 sequence (P0ACI0 1-289): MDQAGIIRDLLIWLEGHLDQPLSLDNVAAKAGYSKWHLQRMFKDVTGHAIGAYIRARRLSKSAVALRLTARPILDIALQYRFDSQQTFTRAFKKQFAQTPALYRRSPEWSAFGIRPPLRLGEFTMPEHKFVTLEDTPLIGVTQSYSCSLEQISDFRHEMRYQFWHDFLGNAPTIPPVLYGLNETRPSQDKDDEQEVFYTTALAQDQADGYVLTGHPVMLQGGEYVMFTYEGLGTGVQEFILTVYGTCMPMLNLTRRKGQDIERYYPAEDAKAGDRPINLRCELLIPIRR
# [5] = biological target: T5, Rma (Salmonella typhimurium, UniProt H9L484); test: Chemiluminescence-based Rma-DNA binding assay; set-up: species or system S. typhimurium; settings: Table 10
# T5 construct: fused on or other part: 6-histidine tag
# T5 sequence (H9L484 1-113): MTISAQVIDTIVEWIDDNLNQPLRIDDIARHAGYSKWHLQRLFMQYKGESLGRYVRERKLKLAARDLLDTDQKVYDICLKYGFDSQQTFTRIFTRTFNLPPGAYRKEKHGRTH
# [6] = biological target: T6, SoxS (Escherichia coli, UniProt P0A9E2); test: Chemiluminescence-based SoxS-DNA binding assay; set-up: made in house; species or system E. coli
# T6 sequence (P0A9E2 1-107): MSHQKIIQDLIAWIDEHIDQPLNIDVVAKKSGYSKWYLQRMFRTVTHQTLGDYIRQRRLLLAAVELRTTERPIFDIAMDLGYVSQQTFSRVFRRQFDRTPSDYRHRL
# [7] = biological target: T6, SoxS; test: Electrophoretic mobility shift assay (EMSA) with SoxS; type: binding; settings: 50 ug/ml compound, 5 nM SoxS
# [8] = tested on: E. coli UPEC strain C189; test: Ascending pyelonephritis model of infection (Example 3); type: in vivo; settings: female CD1 mice, oral dosing at infection and once a day for 4 days, 5-day infection
# [9] = tested on: uncut plasmid DNA; test: Qualitative agarose gel DNA intercalation assay; type: binding; settings: 100 ng uncut plasmid DNA, compared with a known DNA intercalator
# [10] = biological target: LcrF (VirF) (Yersinia pestis, UniProt P28808); test: biochemical; type: binding, Y. pseudotuberculosis
# LcrF (VirF), sequence (P28808 whole entry, looked up): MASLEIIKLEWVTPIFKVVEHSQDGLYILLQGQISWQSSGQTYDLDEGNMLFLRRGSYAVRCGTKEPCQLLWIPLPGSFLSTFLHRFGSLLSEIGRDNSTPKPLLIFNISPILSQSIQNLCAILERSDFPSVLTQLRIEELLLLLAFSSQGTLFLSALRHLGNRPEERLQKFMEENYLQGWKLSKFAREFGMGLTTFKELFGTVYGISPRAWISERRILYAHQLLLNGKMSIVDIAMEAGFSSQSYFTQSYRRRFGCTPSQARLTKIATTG
# [11] = tested on: Y. pseudotuberculosis; settings: in vivo, sc, 25 mg/kg
# [12] = tested on: Y. pseudotuberculosis; settings: in vivo, sc, 25 mg/kg; remark: listed apart in the source
# [13] = tested on: Y. pseudotuberculosis; test: microbe, parasite or virus in culture; settings: Yersinia pseudotuberculosis, J774, read-out: % Cytotoxicity
# [14] = tested on: P. aeruginosa; test: P. aeruginosa cytotoxicity whole cell assay (J774 cells, LDH release); settings: relative to vehicle treated cells infected with wild type P. aeruginosa
# [15] = tested on: E. coli C189 (clinical cystitis isolate); test: E. coli ascending pyelonephritis model, compound GM (Example 4); type: in vivo; settings: CD1 mice
# [16] = Table 7, cell-free system, read-out: ExsA EC50
# [17] = dose response analysis (footnote c), read-out: in vitro SoxS activity: concentration necessary to inhibit DNA-protein binding by 50% (EC50)
# [18] = read-out: % Inhibition (SoxS binding to DNA)
# [19] = EC50 for inhibition of LcrF(VirF)-DNA binding
# [20] = Y. pseudotuberculosis VirF EC50
# [21] = Table 11, subsequent assay, read-out: P. aeruginosa ExsA EC50
Structure (SMILES),"EC50 [1, 16] [µM]",EC50 [2] [µM],Efficacy (log10 decrease in the CFU/g kidney tissue) [8],"EC50 [10, 19] [µM]",activity at 50 µg/mL [13] [%],"EC50 [10, 20] [µM]","EC50 [1, 21] [µM]",other results
CN(C)c1ccc(C(=O)Nc2ccc(-c3nc4ccc([N+](=O)[O-])cc4n3O)cc2)cc1 [AH],> 25,> 5,,,,,,"EC50 ([1]; Table 10, read-out: ExsA EC50): 1 to 4.9 µM; EC50 [3]: 1 to 4.9 µM; EC50 [4]: 1 to 4.9 µM; EC50 [5]: 1 to 4.9 µM; EC50 ([6]; Table 10, read-out: SoxS EC50): < 0.9 µM; EC50 [6, 17]: < 0.9 µM"
NC(=O)c1ccc2nc(-c3ccccc3)n(O)c2c1 [BB],,,,,,,,"activity against SoxS in vitro in an EMSA [7]: moderately active; inhibition at 50 µg/mL [6, 18]: 0 to 29%"
CN(C)c1ccc(-c2nc3ccc([N+](=O)[O-])cc3n2O)cc1 [BP],,,*** (exhibited a 0-1.0 log decrease in CFU/g),,,,,"ability to intercalate DNA [9]: not found to intercalate DNA; EC50 [6, 17]: > 5 µM; inhibition at 50 µg/mL [6, 18]: > 70%"
CC(=O)Nc1ccccc1-c1nc2ccc([N+](=O)[O-])cc2n1O [BX],,,,,,,,"ability to intercalate DNA [9]: not found to intercalate DNA; inhibition at 50 µg/mL [6, 18]: 30 to 69%"
O=C(Nc1ccc(-c2nc3ccc([N+](=O)O)cc3n2O)cc1)c1ccc(-c2cnco2)cc1 [H],< 10,,** (exhibited a 1.1-2.0 log decrease in CFU/g),10 to 25,< 75,,,percent of the starting weight of the infected mice [11]: approximately 100%; percent survival of infected mice [11]: 80%; Log Decrease in CFU/g Lung Tissue [12]: *** (key: ***: exhibited a 0-1.0 log decrease in the CFU/g of LcrF in lung tissue; **: exhibited a 1.1-2.0 log decrease in the CFU/g of LcrF in lung tissue; --: exhibited no efficacy)
COc1ccc(C(=O)Nc2ccc(-c3nc4ccc([N+](=O)[O-])cc4n3O)cc2)cc1 [B],> 25,,*** (exhibited a 0-1.0 log decrease in CFU/g),10 to 25,< 75,,,"inhibition at 50 µg/mL ([6]; compound screening concentration of 50 μg/ml (footnote b), read-out: in vitro SoxS activity: percent inhibition of DNA-protein binding): > 70%"
O=[N+]([O-])c1ccc2nc(-c3ccco3)n(O)c2c1 [AU],,,,,,,,activity against SoxS in vitro in an EMSA [7]: very active; ability to intercalate DNA [9]: not found to intercalate DNA
O=C(/C=C/c1ccc(F)cc1)Nc1ccc(-c2nc3ccc([N+](=O)[O-])cc3n2O)cc1 [M],< 10,,*** (exhibited a 0-1.0 log decrease in CFU/g),< 10,< 75,,,percent of the starting weight of the infected mice [11]: approximately 120%; percent survival of infected mice [11]: 80%; Log Decrease in CFU/g Lung Tissue [12]: ** (key: ***: exhibited a 0-1.0 log decrease in the CFU/g of LcrF in lung tissue; **: exhibited a 1.1-2.0 log decrease in the CFU/g of LcrF in lung tissue; --: exhibited no efficacy)
"CC(=O)c1ccc(/C=C/C(=O)Nc2ccc(-c3nc4ccc([N+](=O)[O-])cc4n3O)cc2)cc1 [AJ, (E)-3-(4-Acetyl-phenyl)-N-[4-(1-hydroxy-6-nitro-H-benzoimidazol-2-yl)-phenyl]-acrylamide]",,> 15.1,,10 to 25,,< 5,< 5,"Cytotoxicity at 50 μg/mL Pseudomonas [14]: ** (reduced P. aeruginosa cytotoxicity below 75% of untreated, wild type levels at 50 mg/mL)"
O=C(O)Cn1c(-c2nc3ccc([N+](=O)[O-])cc3n2O)nc2ccccc21 [BS],,,*** (exhibited a 0-1.0 log decrease in CFU/g),,,,,"EC50 [6, 17]: 1 to 4.9 µM"
CC(=O)c1ccc(C(=O)Nc2ccc(-c3nc4ccc([N+](=O)O)cc4n3O)cc2)cc1 [F],10 to 25,,** (exhibited a 1.1-2.0 log decrease in CFU/g),10 to 25,< 75,,,percent of the starting weight of the infected mice [11]: approximately 100%; percent survival of infected mice [11]: 60%; Log Decrease in CFU/g Lung Tissue [12]: ** (key: ***: exhibited a 0-1.0 log decrease in the CFU/g of LcrF in lung tissue; **: exhibited a 1.1-2.0 log decrease in the CFU/g of LcrF in lung tissue; --: exhibited no efficacy)
COc1cc(F)ccc1C(=O)Nc1ccc(-c2nc3ccc([N+](=O)[O-])cc3n2O)cc1 [DE],,> 15.1,,,75 to 99,< 5,< 5,"Cytotoxicity at 50 μg/mL Pseudomonas [14]: * (reduced P. aeruginosa cytotoxicity to 99-75% of untreated, wild type levels at 50 mg/mL)"
Cc1ccc(/C=C/C(=O)Nc2ccc(-c3nc4ccc([N+](=O)O)cc4n3O)cc2)cc1 [S],< 10,> 15.1,,< 10,,< 5,< 5,
N#Cc1ccc2nc(-c3ccc(NC(=O)/C=C/c4ccc(F)cc4)cc3)n(O)c2c1 [CM],,> 15.1,,,75 to 99,5.1 to 15,< 5,"Cytotoxicity at 50 μg/mL Pseudomonas [14]: ** (reduced P. aeruginosa cytotoxicity below 75% of untreated, wild type levels at 50 mg/mL)"
Cc1ccc(COn2c(-c3ccccc3)nc3ncccc32)cc1 [GM],,,,,,,,"Difference between vehicle treated and compound dose group (kidneys harvested 5 days post infection) ([15]; single dose at the time of infection, 100 mg/kg, p<0.003): statistically significant difference; Difference between untreated (vehicle) and compound dose groups (kidneys harvested 5 days post infection) ([15]; subcutaneous at 0, 6, 24, 30, 48, 54, 72 and 96 hours post-infection, 1, 5 and 20 mg/kg, p<0.05): statistically significant difference"
O=C(Nc1ccc(-c2nc3ccc([N+](=O)[O-])cc3n2O)cc1)c1ccc(F)cc1 [C],< 10,,,10 to 25,75 to 99,,,"EC50 ([1]; Table 10, read-out: ExsA EC50): 1 to 4.9 µM; EC50 [4]: 1 to 4.9 µM; EC50 [5]: 1 to 4.9 µM; EC50 ([6]; Table 10, read-out: SoxS EC50): 1 to 4.9 µM"
O=C(/C=C/c1ccc(F)cc1)Nc1ccc(-c2nc3ncc([N+](=O)[O-])cc3n2O)c(F)c1 [EH],,> 15.1,,,< 75,< 5,< 5,"Cytotoxicity at 50 μg/mL Pseudomonas [14]: * (reduced P. aeruginosa cytotoxicity to 99-75% of untreated, wild type levels at 50 mg/mL)"
O=[N+]([O-])c1ccc2nc(-c3ccc(-c4ccccc4)o3)n(O)c2c1 [BQ],,> 5,** (exhibited a 1.1-2.0 log decrease in CFU/g),,,,,"EC50 ([1]; Table 10, read-out: ExsA EC50): > 5 µM; ability to intercalate DNA [9]: not found to intercalate DNA; EC50 [3]: > 5 µM; EC50 [4]: > 5 µM; EC50 [5]: > 5 µM; EC50 ([6]; Table 10, read-out: SoxS EC50): 1 to 4.9 µM; EC50 [6, 17]: > 5 µM"
CCc1cc(-c2nc3ccc([N+](=O)[O-])cc3n2O)ccc1NC(=O)/C=C/c1ccc(C)cc1 [DP],,> 15.1,,,< 75,< 5,5.1 to 15,"Cytotoxicity at 50 μg/mL Pseudomonas [14]: * (reduced P. aeruginosa cytotoxicity to 99-75% of untreated, wild type levels at 50 mg/mL)"
NC(=O)c1ccc2nc(-c3ccco3)n(O)c2c1 [BK],,,,,,,,activity against SoxS in vitro in an EMSA [7]: lacked activity
O=C(/C=C/c1ccc(F)cc1F)Nc1ccc(-c2nc3ccc([N+](=O)[O-])cc3n2O)cc1 [V],< 10,> 15.1,,< 10,,< 5,< 5,
